Several values for one entry are separate records, joined by “and”; a condition that tells them apart may be missing. Equal values may be shown once. Results filed as inconclusive are left out.
Test system: BDF1 mice, Friend leukemia sc, tumor weight T/C
Assay: NCI In Vivo Anticancer Drug Screen. Data for tumor model Friend Virus Leukemia (Solid) (subcutaneous) in B6D2F1 (BDF1) mice
Details: endpoint: mean tumor weight, higher = larger tumour
Description: The antitumor activity of compounds was measured in mice bearing transplantable tumors. Survival or tumor size were measured and the results are expressed as the measurement made in the treated group (T) divided by the measurement made in the vehicle treated control group (C). The tumor model used in this assay is Friend Virus Leukemia (Solid) (subcutaneous) in B6D2F1 (BDF1) mice

[1] = dose: 62.0 mg/kg/injection, schedule: Q01DX011 (ip), vehicle: carboxymethylcellulose (CMC)
[2] = dose: 125.0 mg/kg/injection, schedule: Q01DX011 (ip), vehicle: carboxymethylcellulose (CMC)
[3] = dose: 37.5 mg/kg/injection, schedule: Q01DX011 (ip), vehicle: carboxymethylcellulose (CMC)
[4] = dose: 75.0 mg/kg/injection, schedule: Q01DX011 (ip), vehicle: carboxymethylcellulose (CMC)
[5] = dose: 25.0 mg/kg/injection, schedule: Q01DX011 (ip), vehicle: carboxymethylcellulose (CMC)
[6] = dose: 50.0 mg/kg/injection, schedule: Q01DX011 (ip), vehicle: carboxymethylcellulose (CMC)
[7] = dose: 100.0 mg/kg/injection, schedule: Q01DX011 (ip), vehicle: carboxymethylcellulose (CMC)

SMILES: Nc1ccc(OC(=O)Oc2ccc(N)cc2)cc1
- T/C (dose: 31.0 mg/kg/injection, schedule: Q01DX011 (ip), vehicle: carboxymethylcellulose (CMC)): 105 % of control
- T/C [1]: 68 % of control
- T/C [2]: 28 % of control

SMILES: CCCCCCCCCCCCCCCCC(C(=O)O)C(O)(CC(=O)O)C(=O)O (configuration not stated)
- T/C (dose: 19.0 mg/kg/injection, schedule: Q01DX011 (ip), vehicle: carboxymethylcellulose (CMC)): 107 % of control
- T/C [3]: 100 % of control
- T/C [4]: 35 % of control

SMILES: Nc1nc(SCc2ccccc2Cl)c2[nH]cnc2n1
- T/C (dose: 1.0 mg/kg/injection, schedule: Q01DX011 (ip), vehicle: carboxymethylcellulose (CMC)): 88 % of control
- T/C (dose: 3.0 mg/kg/injection, schedule: Q01DX011 (ip), vehicle: carboxymethylcellulose (CMC)): 77 % of control
- T/C (dose: 6.0 mg/kg/injection, schedule: Q01DX011 (ip), vehicle: carboxymethylcellulose (CMC)): 67 % of control
- T/C (dose: 12.0 mg/kg/injection, schedule: Q01DX011 (ip), vehicle: carboxymethylcellulose (CMC)): 28 % of control
- T/C [5]: 18 % of control
- T/C [6]: 7 % of control
- T/C [7]: 2 % of control

SMILES: O=c1cn[nH]c(=O)[nH]1
- T/C (dose: 110.0 mg/kg/injection, schedule: Q01DX011 (ip), vehicle: carboxymethylcellulose (CMC)): 72 % of control
- T/C (dose: 220.0 mg/kg/injection, schedule: Q01DX011 (ip), vehicle: carboxymethylcellulose (CMC)): 89 % of control
- T/C (dose: 440.0 mg/kg/injection, schedule: Q01DX011 (ip), vehicle: carboxymethylcellulose (CMC)): 96 % of control

SMILES: ClCCn1cnc2c(SCc3ccccc3)ncnc21
- T/C (dose: 18.0 mg/kg/injection, schedule: Q01DX011 (ip), vehicle: carboxymethylcellulose (CMC)): 85 % of control
- T/C (dose: 37.0 mg/kg/injection, schedule: Q01DX011 (ip), vehicle: carboxymethylcellulose (CMC)): 35 % of control
- T/C [4]: 32 % of control
- T/C (dose: 150.0 mg/kg/injection, schedule: Q01DX011 (ip), vehicle: carboxymethylcellulose (CMC)): 11 % of control and 35 % of control
- T/C (dose: 300.0 mg/kg/injection, schedule: Q01DX011 (ip), vehicle: carboxymethylcellulose (CMC)): 4 % of control

SMILES: Cc1nc2nc(N)nc(N)c2nc1C
- T/C (dose: 13.12 mg/kg/injection, schedule: Q01DX011 (ip), vehicle: carboxymethylcellulose (CMC)): 103 % of control
- T/C (dose: 26.25 mg/kg/injection, schedule: Q01DX011 (ip), vehicle: carboxymethylcellulose (CMC)): 89 % of control
- T/C (dose: 52.5 mg/kg/injection, schedule: Q01DX011 (ip), vehicle: carboxymethylcellulose (CMC)): 52 % of control
- T/C (dose: 105.0 mg/kg/injection, schedule: Q01DX011 (ip), vehicle: carboxymethylcellulose (CMC)): 61 % of control

SMILES: CC(C)(C)c1ccc(S)cc1
- T/C [5]: 181 % of control
- T/C [6]: 121 % of control
- T/C [7]: 85 % of control

SMILES: NNC(=O)c1nsnc1NC(N)=O
- T/C (dose: 43.0 mg/kg/injection, schedule: Q01DX011 (ip), vehicle: carboxymethylcellulose (CMC)): 53 % of control
- T/C (dose: 60.0 mg/kg/injection, schedule: Q01DX011 (ip), vehicle: carboxymethylcellulose (CMC)): 46 % of control

SMILES: CCC[CH2][Sn]([CH2]CCC)([CH2]CCC)[O]C(=O)CC[S][Sn]([CH2]CCC)([CH2]CCC)[CH2]CCC
- T/C (dose: 2.0 mg/kg/injection, schedule: Q01DX011 (ip), vehicle: carboxymethylcellulose (CMC)): 108 % of control
- T/C (dose: 4.0 mg/kg/injection, schedule: Q01DX011 (ip), vehicle: carboxymethylcellulose (CMC)): 82 % of control

SMILES: OCCc1ccccc1
- T/C [1]: 83 % of control
- T/C [2]: 63 % of control
- T/C (dose: 250.0 mg/kg/injection, schedule: Q01DX011 (ip), vehicle: carboxymethylcellulose (CMC)): 57 % of control
- T/C (dose: 500.0 mg/kg/injection, schedule: Q01DX011 (ip), vehicle: carboxymethylcellulose (CMC)): 51 % of control

SMILES: S=C(N=Nc1ccccc1)NNc1ccccc1
- T/C [3]: 92 % of control

SMILES: C[C@]12CCC(=O)C=C1CC[C@@H]1[C@@H]2[C@@H](O)C[C@@]2(C)[C@H]1CC[C@]2(O)C(=O)COC(=O)CCC(=O)O
- T/C (dose: 75.0 mg/kg/injection, schedule: Q01DX011 (sc), vehicle: steriod suspending solution): 52 % of control
- T/C (dose: 150.0 mg/kg/injection, schedule: Q01DX011 (sc), vehicle: steriod suspending solution): 49 % of control
- T/C (dose: 300.0 mg/kg/injection, schedule: Q01DX011 (sc), vehicle: steriod suspending solution): 27 % of control

SMILES: Nc1ccc(O)cc1
- T/C (dose: 100.0 mg/kg/injection, schedule: Q01DX011 (ip), vehicle: saline): 64 % of control
- T/C (dose: 200.0 mg/kg/injection, schedule: Q01DX011 (ip), vehicle: saline): 4 % of control

Reference: PubChem BioAssay AID228 (DTP/NCI, 2004)
